≈ marks a conversion by molar mass, not a printed value.
Details: 20 °C

Compound | solubility [mM]
c1ccc2[nH]cnc2c1 | 17 (≈ 2010 µg/mL)
c1ccc2[nH]ncc2c1 | 6.99 (≈ 826 µg/mL)

Same assay, conditions: 25 °C

solubility [mM] | Compound
11 (≈ 1450 µg/mL) | Cc1nc2ccccc2[nH]1
35 (≈ 4520 µg/mL) | c1ccc2cnccc2c1
3.8 (≈ 498 µg/mL) | Cc1c[nH]c2ccccc12
0.242 (≈ 31 µg/mL) | c1ccc2ccccc2c1
1.89e-05 (≈ 0.00477 µg/mL) | c1ccc2c(c1)c1cccc3ccc4cccc2c4c31
1.06e-05 (≈ 0.00272 µg/mL) | Cc1cccc2c1c(C)cc1cc3ccccc3cc12
5070 (≈ 660000 µg/mL) | c1ccc2nccnc2c1
3e-06 (≈ 0.000798 µg/mL) | Cc1c2ccccc2c2ccc3cccc4ccc1c2c43
2.99e-05 (≈ 0.0085 µg/mL) | CCCCc1c2ccccc2cc2ccc3ccccc3c12

Compound | solubility [mM]
c1ccc2c(c1)ccc1ncccc12 | 0.439 (≈ 78.7 µg/mL)
c1ccc2c(c1)-c1ccc3ccc4cccc5cc-2c1c3c45 | 6.88e-07 (≈ 0.00019 µg/mL)
c1ccc2cc3c(cc2c1)-c1cccc2cccc-3c12 | 3.17e-06 (≈ 0.0008 µg/mL)

Same assay, conditions: 27 °C

solubility [mM] | Compound
0.00016 (≈ 0.041 µg/mL) | CCc1c2ccccc2cc2c1ccc1ccccc12

— the OPERA property sets (Mansouri et al. 2018)
